Measurements as given in PMC5218480 (PLoS ONE, 2017).

Test system: MV-4-11 cells
Experiment: Gene expression microarray analysis (Affymetrix PrimeView) and GSEA
Format: cell-based, human
Parameters: RFU PODN (11730768_x_at) / Fold change /veh PODN (11730768_x_at) / RFU LINC00158 (11744669_a_at) / Fold change /veh LINC00158 (11744669_a_at) / RFU DUSP10 (11751237_a_at) / Fold change /veh DUSP10 (11751237_a_at) / RFU ID3 (11757404_x_at) / Fold change /veh ID3 (11757404_x_at) / RFU PLEKHG5 (11737974_s_at) / Fold change /veh PLEKHG5 (11737974_s_at) / RFU LRRC4B (11730491_at) / Fold change /veh LRRC4B (11730491_at) / RFU GIMAP4 (11747438_a_at) / Fold change /veh GIMAP4 (11747438_a_at) / RFU KRT8 (11758183_x_at) / Fold change /veh KRT8 (11758183_x_at) / RFU CNN1 (11734310_a_at) / Fold change /veh CNN1 (11734310_a_at) / RFU VPS37D (11726825_at) / Fold change /veh VPS37D (11726825_at) / RFU C10orf10 (11716522_x_at) / Fold change /veh C10orf10 (11716522_x_at) / RFU KIR2DL2 /// KIR2DL4 /// KIR2DL5A /// KIR2DL5B /// KIR2DS1 /// KIR2DS2 /// KIR2DS3 /// KIR2DS4 /// KIR3DL3 /// KIR3DL3 /// KIR3DS1 (11738374_at) / Fold change /veh KIR2DL2 /// KIR2DL4 /// KIR2DL5A /// KIR2DL5B /// KIR2DS1 /// KIR2DS2 /// KIR2DS3 /// KIR2DS4 /// KIR3DL3 /// KIR3DL3 /// KIR3DS1 (11738374_at) / RFU C1QL1 (11718748_at) / Fold change /veh C1QL1 (11718748_at) / RFU TMPRSS4 (11747572_a_at) / Fold change /veh TMPRSS4 (11747572_a_at) / RFU HAMP (11756126_x_at) / Fold change /veh HAMP (11756126_x_at) / RFU RNFT2 (11725882_a_at) / Fold change /veh RNFT2 (11725882_a_at) / RFU NR4A2 (11747474_a_at) / Fold change /veh NR4A2 (11747474_a_at) / RFU ABCC12 (11746883_a_at) / Fold change /veh ABCC12 (11746883_a_at) / RFU TMEM136 (11760407_x_at) / Fold change /veh TMEM136 (11760407_x_at) / RFU CLDN22 /// WWC2 (11732394_at) / Fold change /veh CLDN22 /// WWC2 (11732394_at) / RFU HLA-DPB1 (11760878_x_at) / Fold change /veh HLA-DPB1 (11760878_x_at) / RFU SPINT1 (11716480_a_at) / Fold change /veh SPINT1 (11716480_a_at) / RFU GAP43 (11754022_s_at) / Fold change /veh GAP43 (11754022_s_at) / RFU A4GNT (11735810_at) / Fold change /veh A4GNT (11735810_at) / RFU PRB3 (11715151_x_at) / Fold change /veh PRB3 (11715151_x_at) / RFU TUBB4B (11761932_at) / Fold change /veh TUBB4B (11761932_at) / RFU CAPN14 (11732068_a_at) / Fold change /veh CAPN14 (11732068_a_at) / RFU TMCC2 (11721928_a_at) / Fold change /veh TMCC2 (11721928_a_at) / RFU IRGQ (11745062_a_at) / Fold change /veh IRGQ (11745062_a_at) / RFU FAM174B (11720279_a_at) / Fold change /veh FAM174B (11720279_a_at) / RFU TMPRSS4 (11748680_a_at) / Fold change /veh TMPRSS4 (11748680_a_at) / RFU FAM212B (11763350_a_at) / Fold change /veh FAM212B (11763350_a_at) / RFU PLEKHG5 (11743358_a_at) / Fold change /veh PLEKHG5 (11743358_a_at) / RFU ZSCAN30 (11745921_a_at) / Fold change /veh ZSCAN30 (11745921_a_at) / RFU CMKLR1 (11741424_a_at) / Fold change /veh CMKLR1 (11741424_a_at) / RFU LOC101060620 /// MAPK8IP1 (11723275_at) / Fold change /veh LOC101060620 /// MAPK8IP1 (11723275_at) / RFU SPTSSB (11747773_x_at) / Fold change /veh SPTSSB (11747773_x_at) / RFU PRSS12 (11739890_at) / Fold change /veh PRSS12 (11739890_at) / RFU BIN1 (11741810_x_at) / Fold change /veh BIN1 (11741810_x_at) / RFU WNT11 (11732464_a_at) / Fold change /veh WNT11 (11732464_a_at) / RFU C10orf10 (11716521_a_at) / Fold change /veh C10orf10 (11716521_a_at) / RFU C5orf56 (11738089_at) / Fold change /veh C5orf56 (11738089_at) / RFU CYB561 (11721691_x_at) / Fold change /veh CYB561 (11721691_x_at) / RFU ANKRD19P (11752326_a_at) / Fold change /veh ANKRD19P (11752326_a_at) / RFU OR2T12 /// OR2T33 /// OR2T8 (11738714_s_at) / Fold change /veh OR2T12 /// OR2T33 /// OR2T8 (11738714_s_at) / RFU VCAN (11748164_a_at) / Fold change /veh VCAN (11748164_a_at) / RFU JSRP1 (11732532_at) / Fold change /veh JSRP1 (11732532_at) / RFU KRTAP10-11 (11738290_x_at) / Fold change /veh KRTAP10-11 (11738290_x_at) / RFU MYO3A (11730013_a_at) / Fold change /veh MYO3A (11730013_a_at) / RFU EBF3 (11725865_a_at) / Fold change /veh EBF3 (11725865_a_at) / RFU CAMK2N1 (11719241_x_at) / Fold change /veh CAMK2N1 (11719241_x_at) / RFU C5orf56 (11738088_a_at) / Fold change /veh C5orf56 (11738088_a_at) / RFU OLFML3 (11715873_a_at) / Fold change /veh OLFML3 (11715873_a_at) / RFU LOC100653217 /// NTM (11731650_a_at) / Fold change /veh LOC100653217 /// NTM (11731650_a_at) / RFU MAPK11 (11762145_a_at) / Fold change /veh MAPK11 (11762145_a_at) / RFU FIZ1 (11724087_x_at) / Fold change /veh FIZ1 (11724087_x_at) / RFU OASL (11726364_x_at) / Fold change /veh OASL (11726364_x_at) / RFU SOX15 (11748057_x_at) / Fold change /veh SOX15 (11748057_x_at) / RFU CD79A (11719716_a_at) / Fold change /veh CD79A (11719716_a_at) / RFU HIST1H1D (11736915_at) / Fold change /veh HIST1H1D (11736915_at) / RFU CASKIN2 (11723855_a_at) / Fold change /veh CASKIN2 (11723855_a_at) / RFU LOC730098 (11760151_x_at) / Fold change /veh LOC730098 (11760151_x_at) / RFU OR4N2 (11742367_at) / Fold change /veh OR4N2 (11742367_at) / RFU PRRT2 (11749266_a_at) / Fold change /veh PRRT2 (11749266_a_at) / RFU SNX32 (11753110_a_at) / Fold change /veh SNX32 (11753110_a_at) / RFU CDHR5 (11726645_a_at) / Fold change /veh CDHR5 (11726645_a_at) / RFU RCAN1 (11760418_a_at) / Fold change /veh RCAN1 (11760418_a_at) / RFU FAM167A (11723789_a_at) / Fold change /veh FAM167A (11723789_a_at) / RFU FAM26E (11764081_at) / Fold change /veh FAM26E (11764081_at) / RFU ISYNA1 (11749810_s_at) / Fold change /veh ISYNA1 (11749810_s_at) / RFU ACY1 (11761880_at) / Fold change /veh ACY1 (11761880_at) / RFU 11764098_at / Fold change /veh 11764098_at / RFU SAMD14 (11745864_x_at) / Fold change /veh SAMD14 (11745864_x_at) / RFU NPB (11741838_a_at) / Fold change /veh NPB (11741838_a_at) / RFU TMPRSS6 (11731388_a_at) / Fold change /veh TMPRSS6 (11731388_a_at) / RFU KRTAP10-2 (11738614_at) / Fold change /veh KRTAP10-2 (11738614_at) / RFU ARHGAP8 /// PRR5-ARHGAP8 (11727945_x_at) / Fold change /veh ARHGAP8 /// PRR5-ARHGAP8 (11727945_x_at) / RFU KRTAP5-7 /// NADSYN1 (11734609_at) / Fold change /veh KRTAP5-7 /// NADSYN1 (11734609_at) / RFU RASL12 (11751679_a_at) / Fold change /veh RASL12 (11751679_a_at) / RFU CDKN2B (11736163_a_at) / Fold change /veh CDKN2B (11736163_a_at) / RFU PRF1 (11729649_at) / Fold change /veh PRF1 (11729649_at) / RFU, ZNF638 /// ZNF638-IT1 / Fold change vs veh, ZNF638 /// ZNF638-IT1 / RFU, PANK3 / Fold change vs veh, PANK3 / RFU, SH3YL1 / Fold change vs veh, SH3YL1 / RFU, ZEB2 / Fold change vs veh, ZEB2 / RFU, NRIP1 / Fold change vs veh, NRIP1 / RFU, PTTG1IP / Fold change vs veh, PTTG1IP / RFU, CAPN2 / Fold change vs veh, CAPN2 / RFU, MED14 / Fold change vs veh, MED14 / RFU, SNORA58 / Fold change vs veh, SNORA58 / RFU, C1orf63 / Fold change vs veh, C1orf63 / RFU, LRRFIP1 / Fold change vs veh, LRRFIP1 / RFU, NDUFAF7 / Fold change vs veh, NDUFAF7 / RFU, SLC12A2 / Fold change vs veh, SLC12A2 / RFU, IBTK / Fold change vs veh, IBTK / RFU, ESF1 / Fold change vs veh, ESF1 / Fold change vs veh, TMEM50B / RFU, TAOK1 / Fold change vs veh, TAOK1 / RFU, ACBD3 / Fold change vs veh, ACBD3 / RFU, TMA16 / Fold change vs veh, TMA16 / RFU, RWDD3 / Fold change vs veh, RWDD3 / RFU, BCAT1 / Fold change vs veh, BCAT1 / RFU, EDEM3 / Fold change vs veh, EDEM3 / RFU, TMEM33 / Fold change vs veh, TMEM33 / RFU, WDR75 / Fold change vs veh, WDR75 / RFU, AHCTF1 / Fold change vs veh, AHCTF1 / RFU, TFRC / Fold change vs veh, TFRC / RFU, ZDHHC17 / Fold change vs veh, ZDHHC17 / RFU, NOM1 / Fold change vs veh, NOM1 / RFU, ARL8B / Fold change vs veh, ARL8B / RFU, ZBTB11 / Fold change vs veh, ZBTB11 / RFU, TAMM41 / Fold change vs veh, TAMM41 / RFU, KIAA1704 /// LOC100996395 / Fold change vs veh, KIAA1704 /// LOC100996395 / RFU, ING1 / Fold change vs veh, ING1 / RFU, TRMT61B / Fold change vs veh, TRMT61B / RFU, FUBP3 / Fold change vs veh, FUBP3 / RFU, TP53 / Fold change vs veh, TP53 / RFU, TNKS2 / Fold change vs veh, TNKS2 / RFU, ZFP14 / Fold change vs veh, ZFP14 / RFU, ACTR2 / Fold change vs veh, ACTR2 / RFU, PPP3R1 / Fold change vs veh, PPP3R1 / RFU, PIK3R1 / Fold change vs veh, PIK3R1 / RFU, HNRNPA1 / Fold change vs veh, HNRNPA1 / RFU, RNF170 / Fold change vs veh, RNF170 / RFU, ZNF28 / Fold change vs veh, ZNF28 / RFU, RNGTT / Fold change vs veh, RNGTT / RFU, OGT / Fold change vs veh, OGT / RFU, BRD1 / Fold change vs veh, BRD1 / RFU, MARS / Fold change vs veh, MARS / RFU, ZNF655 / Fold change vs veh, ZNF655 / RFU, FAHD1 / Fold change vs veh, FAHD1 / RFU, BDP1 / Fold change vs veh, BDP1 / RFU, LRRCC1 / Fold change vs veh, LRRCC1 / RFU, ARID1A / Fold change vs veh, ARID1A / RFU, ZNF146 / Fold change vs veh, ZNF146 / RFU, ZNF330 / Fold change vs veh, ZNF330 / RFU, GPN3 / Fold change vs veh, GPN3 / RFU, C9orf123 / Fold change vs veh, C9orf123 / RFU, N4BP2L2 / Fold change vs veh, N4BP2L2 / RFU, ARFIP1 / Fold change vs veh, ARFIP1 / RFU, FAM179B / Fold change vs veh, FAM179B / RFU, BCL10 / Fold change vs veh, BCL10 / RFU, UHRF1BP1L / Fold change vs veh, UHRF1BP1L / RFU, BET1 / Fold change vs veh, BET1 / RFU, CNOT2 / Fold change vs veh, CNOT2 / RFU, ZNF268 / Fold change vs veh, ZNF268 / Fold change vs veh, ZNF507 / RFU, DGCR2 / Fold change vs veh, DGCR2 / RFU, WDSUB1 / Fold change vs veh, WDSUB1 / Fold change vs veh, HSP90B1 /// MIR3652 / RFU, ADSS / Fold change vs veh, ADSS / RFU, GK / Fold change vs veh, GK / RFU, ZNF148 / Fold change vs veh, ZNF148 / RFU, TAF9 / Fold change vs veh, TAF9 / RFU, SLC1A5 / Fold change vs veh, SLC1A5 / RFU, SLMO2 / Fold change vs veh, SLMO2 / RFU, ABCC4 / Fold change vs veh, ABCC4 / RFU, LOC101060439 /// RAP1B / Fold change vs veh, LOC101060439 /// RAP1B / RFU, RFX7 / Fold change vs veh, RFX7 / RFU, GTPBP10 / Fold change vs veh, GTPBP10 / RFU, CNEP1R1 / Fold change vs veh, CNEP1R1 / RFU, BIVM-ERCC5 /// ERCC5 / Fold change vs veh, BIVM-ERCC5 /// ERCC5 / RFU, ILF3 / Fold change vs veh, ILF3 / RFU 11762660_at / Fold change /veh 11762660_at / RFU VCAN (11757783_s_at) / Fold change /veh VCAN (11757783_s_at) / RFU DDX43 (11728927_at) / Fold change /veh DDX43 (11728927_at) / RFU KRT8 (11758188_x_at) / Fold change /veh KRT8 (11758188_x_at) / RFU NKD1 (11759106_at) / Fold change /veh NKD1 (11759106_at) / RFU SRD5A1 (11742802_a_at) / Fold change /veh SRD5A1 (11742802_a_at) / RFU TPSAB1 /// TPSB2 (11721975_s_at) / Fold change /veh TPSAB1 /// TPSB2 (11721975_s_at) / RFU GSTM3 (11746129_a_at) / Fold change /veh GSTM3 (11746129_a_at) / RFU IL23R (11737362_x_at) / Fold change /veh IL23R (11737362_x_at) / RFU TMEM51 (11727254_a_at) / Fold change /veh TMEM51 (11727254_a_at) / RFU PIWIL2 (11732686_x_at) / Fold change /veh PIWIL2 (11732686_x_at) / RFU ORM1 (11744905_x_at) / Fold change /veh ORM1 (11744905_x_at) / RFU CCDC152 (11743942_at) / Fold change /veh CCDC152 (11743942_at) / RFU ECM1 (11717891_a_at) / Fold change /veh ECM1 (11717891_a_at) / RFU IL23R (11748794_a_at) / Fold change /veh IL23R (11748794_a_at) / RFU TNFAIP8L3 (11732012_x_at) / Fold change /veh TNFAIP8L3 (11732012_x_at) / RFU MBOAT4 (11741988_at) / Fold change /veh MBOAT4 (11741988_at) / RFU 11764193_at / Fold change /veh 11764193_at / RFU TMEM53 (11763286_at) / Fold change /veh TMEM53 (11763286_at) / RFU MAGEB2 (11727129_at) / Fold change /veh MAGEB2 (11727129_at) / RFU TMEM200A (11744735_a_at) / Fold change /veh TMEM200A (11744735_a_at) / RFU CCDC152 (11751479_a_at) / Fold change /veh CCDC152 (11751479_a_at) / RFU FAM211A (11726209_a_at) / Fold change /veh FAM211A (11726209_a_at) / RFU RGS16 (11746705_a_at) / Fold change /veh RGS16 (11746705_a_at) / RFU VCAN (11755009_s_at) / Fold change /veh VCAN (11755009_s_at) / RFU RHOB (11743442_s_at) / Fold change /veh RHOB (11743442_s_at) / RFU RGS16 (11720943_a_at) / Fold change /veh RGS16 (11720943_a_at) / RFU RGS16 (11720944_at) / Fold change /veh RGS16 (11720944_at) / RFU, VPS4B / Fold change vs veh, VPS4B / RFU, CREB1 / Fold change vs veh, CREB1 / RFU, DNAJC13 / Fold change vs veh, DNAJC13 / RFU, GNAQ / Fold change vs veh, GNAQ / RFU, CDK5R1 / Fold change vs veh, CDK5R1 / RFU, ZRANB3 / Fold change vs veh, ZRANB3 / RFU, CUL4A / Fold change vs veh, CUL4A / RFU, CCNY / Fold change vs veh, CCNY / RFU, UFL1 / Fold change vs veh, UFL1 / RFU, COG3 / Fold change vs veh, COG3 / RFU, DIAPH2 / Fold change vs veh, DIAPH2 / RFU, SKA2 / Fold change vs veh, SKA2 / RFU, AFF3 / Fold change vs veh, AFF3 / RFU, LMF1 / Fold change vs veh, LMF1 / RFU, IPO11 / Fold change vs veh, IPO11 / RFU, DFFB / Fold change vs veh, DFFB / RFU, FOXP1 / Fold change vs veh, FOXP1 / RFU, CARD8 / Fold change vs veh, CARD8 / RFU, STRN3 / Fold change vs veh, STRN3 / RFU, ADK / Fold change vs veh, ADK / RFU, RASSF2 / Fold change vs veh, RASSF2 / RFU, WIPF1 / Fold change vs veh, WIPF1 / RFU, LARP1B / Fold change vs veh, LARP1B / RFU, RASA1 / Fold change vs veh, RASA1 / RFU, RB1 / Fold change vs veh, RB1 / RFU, PPFIA1 / Fold change vs veh, PPFIA1 / RFU, MAT2A / Fold change vs veh, MAT2A / RFU, CCT5 / Fold change vs veh, CCT5 / RFU, WDR92 / Fold change vs veh, WDR92 / RFU, CUX1 / Fold change vs veh, CUX1 / RFU, TTC7A / Fold change vs veh, TTC7A / RFU, TMEM135 / Fold change vs veh, TMEM135 / RFU, DEPTOR / Fold change vs veh, DEPTOR / RFU, CPM / Fold change vs veh, CPM / RFU, DNAJB6 / Fold change vs veh, DNAJB6 / RFU, CACNA2D3 / Fold change vs veh, CACNA2D3 / RFU, DTX4 / Fold change vs veh, DTX4 / RFU, TFCP2 / Fold change vs veh, TFCP2 / RFU, GMCL1 /// GMCL1P1 / Fold change vs veh, GMCL1 /// GMCL1P1 / RFU, AEBP2 / Fold change vs veh, AEBP2 / RFU, SNHG1 /// SNORD22 /// SNORD25 /// SNORD26 /// SNORD27 /// SNORD28 /// SNORD29 /// SNORD31 / Fold change vs veh, SNHG1 /// SNORD22 /// SNORD25 /// SNORD26 /// SNORD27 /// SNORD28 /// SNORD29 /// SNORD31 / Fold change (Aza/veh), C12orf56 (ProbeSet 11735607_a_at) / Fold change (ACY-1035/veh), C12orf56 (ProbeSet 11735607_a_at) / Fold change (Aza/veh), FGFR1OP (ProbeSet 11751329_s_at) / Fold change (ACY-1035/veh), FGFR1OP (ProbeSet 11751329_s_at) / Fold change (Aza/veh), VPS36 (ProbeSet 11739960_a_at) / Fold change (ACY-1035/veh), VPS36 (ProbeSet 11739960_a_at) / RFU SYPL1 (11715823_x_at) / Fold change /veh SYPL1 (11715823_x_at) / RFU IGFBP7 (11715501_s_at) / Fold change /veh IGFBP7 (11715501_s_at) / RFU REEP3 (11722064_at) / Fold change /veh REEP3 (11722064_at) / RFU IGLL1 (11728026_x_at) / Fold change /veh IGLL1 (11728026_x_at): dose or concentration left out as unconfirmed
Conditions: ProbeSet 11758919_x_at; LIST D

In the case of `Nc1ccc(-c2cccs2)cc1NC(=O)c1ccc2c(c1)cc(C1CC1)n2CCN1CCOCC1` [ACY-1035], the “Fold change vs veh, TFCP2” value is reported as 0.94.
